How the values were obtained:
[1] = tested on: patients with constipation-predominant IBS; settings: 16 mg three times a week over eight weeks, cited from earlier work
[2] = tested on: subjects with IBS of the constipation-predominant and alternating types; settings: 1 mg twice daily for 8 weeks; 25 subjects; cited from earlier work
patients with IBS = settings: 0.4 mg intravenously; 50 patients; versus placebo; cited from earlier work
normal subjects [3] = test: Oral-cecal transit time by lactulose hydrogen breath test; type: in vivo, human; settings: 12 doses of 0.3 mg/kg every 6 hours intravenous; 12 normal subjects not receiving opioids; mean±SD; baseline mean 101.3±29.4 minutes; P<0.05
Description: (§1) With approval from the Institutional Review Board, 12 normal subjects (8 males and 4 non-pregnant females) participated in a controlled trial. The mean age was 29.3±5.8 (mean+/−standard deviation [SD]) years. […] Subjects were administered 12 consecutive doses of methylnaltrexone at a dosage rate of 0.3 mg/kg every 6 hours via intravenous injection. Methylnaltrexone was dissolved in isotonic saline for administration in this study. No other excipients were present in the administered solution. Oral-cecal transit time was measured prior to the first dose and after the last dose, following repeated dosing for 3 days, using a lactulose hydrogen breath test (Yuan, C. S., et al., Clin. Pharmacol. Ther. 1996;59:469-475). A subjective rating test for possible opioid agonist effects was also employed (Yuan, C. S., et al., Drug Alcohol Dependence 1998;52:161-165). […] The reduction in the means was statistically significant at the level of P<0.05 using the paired t-test and the Wilcoxon signed rank test. […] The absence of statistically significant changes in overall subjective opioid ratings is consistent with the lack of penetration into the central nervous system by methylnaltrexone.

[4] = white crystalline powder; cited from earlier work
normal subjects [5] = test: Adverse effects during repeated intravenous dosing; type: in vivo, human; settings: 12 doses of 0.3 mg/kg every 6 hours intravenous
Description: as §1

**Q.** What does the source list for `C=C1CCC2(O)C3Cc4ccc(OC5OC(C(=O)O)C(O)C(O)C5O)c5c4C2(CCN3CC2CC2)C1O5` (stereo not shown) [nalmefene glucuronide]?
**A.** gut transit time ([1]; patient reported): decreased; stool frequency ([1]; patient reported): increased; abdominal pain or bloating [1]: did not reduce; stool consistency [1]: not improved

**Q.** For `C=CCN1CC[C@]23c4c5ccc(O)c4O[C@H]2C(=O)CC[C@@]3(O)[C@H]1C5` [naloxone], which “adequate symptom relief versus placebo” value [2] is on record?
**A.** The value was “not statistically significantly different”.

**Q.** What about the “subjective ratings such as severity ratings and pain scores” value [2] of the same compound?
**A.** Its value is “Marginal but non-statistically significant improvements”.

**Q.** And the “degree of muscle spasm and relative intensity of pain” value (patients with IBS)?
**A.** The value was “not associated with any objective or subjective evidence of beneficial effect”.

**Q.** With `C[N@+]1(CC2CC2)CC[C@]23c4c5ccc(O)c4O[C@H]2C(=O)CC[C@@]3(O)[C@H]1C5` [methylnaltrexone, N-methyl-naltrexone bromide] as the compound, how does the “oral-cecal transit time after 3 days of treatment” value (normal subjects [3]) read?
**A.** The value was 82.5 ± 20.7 min.

**Q.** What about the solubility in water [4] of the same compound?
**A.** The solubility in water was “freely soluble in water”.

**Q.** And the adverse effects (normal subjects [5])?
**A.** Its adverse effects is “No significant adverse effects”.

Source: patent publication US20050004155A1, “Use of methylnaltrexone to treat irritable bowel syndrome” (priority 2003, published 2005)
